Experimental findings from patent US20240374573A1, “IMIDAZOLE CONTAINING COMPOUNDS, DERIVATIVES THEREFORE, AND USES THEREOF” (AglaeaPharma Inc., priority 2023, published 2024) are described below.

For orientation: EC50 means the concentration at which the effect is half-maximal. What is called Ki is a measure of affinity in units of concentration, obtained from inhibition or displacement.

Assay [1] addresses T1, α2AAR (α2A-adrenergic receptor) (Homo sapiens, UniProt P08913).
T1 construct: expressed in transfected cells; host or cells: HEK293
T1 sequence (P08913 1-465): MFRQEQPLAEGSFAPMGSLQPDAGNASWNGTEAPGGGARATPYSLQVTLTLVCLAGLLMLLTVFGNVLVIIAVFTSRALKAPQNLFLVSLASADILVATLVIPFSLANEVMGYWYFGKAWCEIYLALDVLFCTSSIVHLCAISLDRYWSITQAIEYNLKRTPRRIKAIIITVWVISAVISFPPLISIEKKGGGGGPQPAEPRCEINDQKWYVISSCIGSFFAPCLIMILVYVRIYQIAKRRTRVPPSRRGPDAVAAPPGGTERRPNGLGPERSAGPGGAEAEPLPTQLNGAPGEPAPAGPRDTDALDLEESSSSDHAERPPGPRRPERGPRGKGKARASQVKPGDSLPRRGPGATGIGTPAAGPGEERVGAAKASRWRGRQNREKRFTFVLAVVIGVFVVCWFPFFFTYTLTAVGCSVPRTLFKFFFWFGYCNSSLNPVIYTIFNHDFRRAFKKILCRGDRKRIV
Put plainly: α2AAR FLIPR assay (agonist activity). It counts as cell-based. To be noted: FLIPR, α2AAR cell line hosted in HEK293 cells; read-out: α2A agonist activity (EC50). The procedure, abridged: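 HEK293 cells expressing α2AAR loaded with Fluo-4 Direct plus probenecid for 50 min at 37° C and 10 min at room temperature, then treated with serially diluted compounds.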

Assay [2] has as its target T2, α2AAR (Homo sapiens, UniProt P08913).
T2 construct: host or cells: HEK293 (membranes)
T2 sequence (P08913 1-465): T1 sequence (P08913 1-465)
In words: α2AAR binding assay ([3H]-RX 821002 radioligand). To be noted: [3H]-RX 821002 0.5 nM, HEK293 membranes; read-out: α2A affinity (Ki).

`CC(=O)Nc1ccc(CC(c2c[nH]cn2)c2cccc(C)c2C)cc1F` (stereo not shown) [compound 193]: in assay [1], the half-maximal effective concentration (EC50) lay within 10 to 50 nM. The Ki in assay [2] was under 10 nM.

As for `COC(=O)Nc1ccc(CC(c2c[nH]cn2)c2cccc(C)c2C)cc1` (stereo not shown) [compound 194], in assay [1], the EC50 fell in the range of 10 to 50 nM. Moreover, the Ki in assay [2] is under 10 nM.

Turning to `COCC(=O)Nc1ccc(CC(c2c[nH]cn2)c2cccc(C)c2C)cc1` (stereo not shown) [compound 195], in assay [1], the EC50 is 10 to 50 nM. In addition, the Ki in assay [2] was under 10 nM.

As to `Cc1cccc(C(Cc2ccc3c(c2)OCCO3)c2c[nH]cn2)c1C` (stereo not shown) [compound 196], the EC50 in assay [1] lay in the range of 50 to 250 nM. Also, the Ki in assay [2] was under 10 nM.

As for `Cc1cccc(C(Cc2ccc(C(=O)O)c(F)c2)c2c[nH]cn2)c1C` (stereo not shown) [compound 197], the EC50 in assay [1] lay in the range of 10 to 50 nM. Also, in assay [2], the Ki lay within 50 to 250 nM.

For the compound `Cc1cccc(C(Cc2ccc(NC(=O)NC3CCOC3)cc2)c2c[nH]cn2)c1C` (stereo not shown) [compound 198], in assay [1], the EC50 was in the range of 10 to 50 nM. Further, the Ki in assay [2] was under 10 nM.

On to `Cc1cccc(C(c2c[nH]cn2)c2cccc(-c3cnnn3C)c2F)c1C` (stereo not shown) [compound 201], for which, in assay [1], the EC50 was 10 to 50 nM. In addition, in assay [2], the Ki is under 10 nM.

Turning to `CNc1ccc(CC(c2c[nH]cn2)c2cccc(C)c2C)cc1` (stereo not shown) [compound 203], the EC50 in assay [1] was in the range of 50 to 250 nM. Further, the Ki in assay [2] is under 10 nM.

Take `Cc1cccc(C(Cc2ccc(C(=O)NS(=O)(=O)c3ccccc3)cc2)c2c[nH]cn2)c1C` (stereo not shown) [compound 204]: in assay [1], the EC50 fell in the range of 50 to 250 nM. The Ki in assay [2] fell in the range of 50 to 250 nM.

With `Cc1cccc(C(Cc2ccc(CC(=O)O)cc2)c2c[nH]cn2)c1C` (stereo not shown) [compound 206], the EC50 in assay [1] was in the range of 50 to 250 nM. Further, in assay [2], the Ki lay within 50 to 250 nM.

As to `Cc1cccc(C(Cc2ccc(NC3CCOCC3)cc2)c2c[nH]cn2)c1C` (stereo not shown) [compound 207], the half-maximal effective concentration (EC50) in assay [1] was 10 to 50 nM. The Ki in assay [2] was under 10 nM.

Regarding `Cc1cccc(C(Cc2ccc(-c3cnnn3C)cc2)c2c[nH]cn2)c1C` (stereo not shown) [compound 209], in assay [1], the EC50 was 10 to 50 nM. Also, the Ki in assay [2] is under 10 nM.

Take `Cc1cccc(C(Cc2ccc(-c3nnn[nH]3)cc2)c2c[nH]cn2)c1C` (stereo not shown) [compound 210]: the EC50 in assay [1] fell in the range of 50 to 250 nM. Further, in assay [2], the Ki fell in the range of 10 to 50 nM.

With `Cc1cn(-c2ccc(CC(c3c[nH]cn3)c3cccc(C)c3C)cc2)nn1` (stereo not shown) [compound 211], the EC50 in assay [1] was in the range of 10 to 50 nM. Also, in assay [2], the Ki was under 10 nM.

Regarding `Cc1cccc(C(Cc2ccc(NC(=S)C3CCOCC3)cc2)c2c[nH]cn2)c1C` (stereo not shown) [compound 212], the EC50 in assay [1] fell in the range of 10 to 50 nM. The inhibition constant (Ki) in assay [2] is under 10 nM.

On to `Cc1cccc(C(Cc2ccc(C(=O)O)c(O)c2)c2c[nH]cn2)c1C` (stereo not shown) [compound 218], for which the EC50 in assay [1] fell in the range of 10 to 50 nM. In assay [2], the Ki lay within 50 to 250 nM.

With `Cc1cccc(C(c2cccc(-c3cnnn3C3CCOCC3)c2)c2c[nH]cn2)c1C` (stereo not shown) [compound 220], the EC50 in assay [1] was under 10 nM. Besides, the Ki in assay [2] is under 10 nM.

Turning to `Cc1cccc(C(Cc2ccc(S(=O)(=O)O)cc2)c2c[nH]cn2)c1C` (stereo not shown) [compound 221], the EC50 in assay [1] is 10 to 50 nM. Also, in assay [2], the Ki was 10 to 50 nM.

On to `CC(=O)N(C)c1ccc(CC(c2c[nH]cn2)c2cccc(C)c2C)cc1` (stereo not shown) [compound 222], for which the EC50 in assay [1] was 10 to 50 nM. Moreover, the Ki in assay [2] lay within 10 to 50 nM.

With `Cc1cccc(C(Cc2ccc(O)c(O)c2)c2c[nH]cn2)c1C` (stereo not shown) [compound 223], in assay [1], the EC50 is 10 to 50 nM. The Ki in assay [2] was under 10 nM.

Turning to `COc1ccc(CC(c2c[nH]cn2)c2cccc(C)c2C)cc1OC` (stereo not shown) [compound 224], the EC50 in assay [1] is under 10 nM. Moreover, in assay [2], the Ki is under 10 nM.

For `Cc1cccc(C(Cc2ccc3c(c2)OCC(=O)N3)c2c[nH]cn2)c1C` (stereo not shown) [compound 225], the EC50 in assay [1] was under 10 nM. For the same compound, the Ki in assay [2] was under 10 nM.

Take `COc1cc(CC(c2c[nH]cn2)c2cccc(C)c2C)cc(OC)c1OC` (stereo not shown) [compound 226]: in assay [1], the EC50 was under 10 nM. Also, in assay [2], the Ki was under 10 nM.

In the case of `Cc1cccc(C(Cc2ccc(C(C)c3nnn[nH]3)cc2)c2c[nH]cn2)c1C` (stereo not shown) [compound 227], in assay [1], the EC50 lay within 10 to 50 nM. Moreover, the Ki in assay [2] was 10 to 50 nM.

With `Cc1cccc(C(Cc2ccc(N(C)C(=O)N(C)C)cc2)c2c[nH]cn2)c1C` (stereo not shown) [compound 228], the EC50 in assay [1] is under 10 nM. Also, in assay [2], the Ki was under 10 nM.

As to `Cc1cccc(C(Cc2ccc(C(=O)NCC(=O)O)cc2)c2c[nH]cn2)c1C` (stereo not shown) [compound 229], the EC50 in assay [1] lay within 10 to 50 nM. For the same compound, in assay [2], the Ki was 50 to 250 nM.

`Cc1cccc(C(Cc2ccc3c(c2)CCC(=O)N3)c2c[nH]cn2)c1C` (stereo not shown) [compound 230]: the EC50 in assay [1] was in the range of 10 to 50 nM. In assay [2], the Ki is under 10 nM.

For the compound `CNc1cccc(CC(c2c[nH]cn2)c2cccc(C)c2C)c1` (stereo not shown) [compound 231], the EC50 in assay [1] is 10 to 50 nM. The Ki in assay [2] lay in the range of 10 to 50 nM.

In the case of `Cc1cccc(C(Cc2ccc(S(C)(=O)=O)cc2)c2c[nH]cn2)c1C` (stereo not shown) [compound 232], in assay [1], the EC50 is under 10 nM. The Ki in assay [2] is under 10 nM.

As for `Cc1cccc(C(Cc2ccc(C(=O)NC3CCOCC3)c(O)c2)c2c[nH]cn2)c1C` (stereo not shown) [compound 233], the EC50 in assay [1] was in the range of 10 to 50 nM. In addition, the Ki in assay [2] fell in the range of 10 to 50 nM.

With `Cc1cccc(C(Cc2ccc(NC(=O)C3CCO3)cc2)c2c[nH]cn2)c1C` (stereo not shown) [compound 234], the EC50 in assay [1] lay in the range of 10 to 50 nM. Moreover, in assay [2], the Ki was under 10 nM.

Take `Cc1cccc(C(Cc2ccc3c(c2)OCCN3)c2c[nH]cn2)c1C` (stereo not shown) [compound 235]: the EC50 in assay [1] was in the range of 10 to 50 nM. The Ki in assay [2] is under 10 nM.

`Cc1cccc(C(Cc2ccc(C(=O)NCCC(=O)O)cc2)c2c[nH]cn2)c1C` (stereo not shown) [compound 236]: the concentration giving a half-maximal response (EC50) in assay [1] fell in the range of 10 to 50 nM. The Ki in assay [2] is 50 to 250 nM.

As to `CNC(=O)Nc1ccc(CC(c2c[nH]cn2)c2cccc(C)c2C)cc1` (stereo not shown) [compound 237], the EC50 in assay [1] was in the range of 10 to 50 nM. Moreover, in assay [2], the Ki was under 10 nM.

Consider `Cc1cccc(C(Cc2ccc(OCC(=O)O)cc2)c2c[nH]cn2)c1C` (stereo not shown) [compound 239], for which the EC50 in assay [1] lay within 10 to 50 nM. The Ki in assay [2] was in the range of 50 to 250 nM.

In the case of `Cc1cccc(C(Cc2ccc(-c3nnn(C)n3)cc2)c2c[nH]cn2)c1C` (stereo not shown) [compound 241], in assay [1], the EC50 was 10 to 50 nM. Besides, the Ki in assay [2] lay in the range of 10 to 50 nM.

With `Cc1cccc(C(Cc2ccc(NC(=O)C3CCOCC3)nc2)c2c[nH]cn2)c1C` (stereo not shown) [compound 242], in assay [1], the EC50 lay in the range of 10 to 50 nM. Further, in assay [2], the Ki was in the range of 50 to 250 nM.

On to `Cc1cccc(C(Cc2ccc(N3CCN(C)C3=O)cc2)c2c[nH]cn2)c1C` (stereo not shown) [compound 243], for which the EC50 in assay [1] is under 10 nM. Further, in assay [2], the Ki was under 10 nM.

As for `Cc1ccccc1C(Cc1ccc(C(N)=O)cc1)c1c[nH]cn1` (stereo not shown) [compound 244], in assay [1], the EC50 lay within 50 to 250 nM. Also, the Ki in assay [2] lay in the range of 50 to 250 nM.

As to `Cc1cccc(C(Cc2ccc(NC(=O)N(C)C3CCOC3)cc2)c2c[nH]cn2)c1C` (stereo not shown) [compound 245], in assay [1], the half-maximal effective concentration (EC50) was under 10 nM. For the same compound, in assay [2], the Ki is under 10 nM.

Turning to `Cc1cccc(C(Cc2ccc3c(c2)NCCN3)c2c[nH]cn2)c1C` (stereo not shown) [compound 246], the EC50 in assay [1] was in the range of 10 to 50 nM. Further, the inhibitory constant (Ki) in assay [2] is 10 to 50 nM.

Consider `CC(=O)Nc1ccc(CC(c2c[nH]cn2)c2cccc(C)c2C)c(F)c1` (stereo not shown) [compound 247], for which the EC50 in assay [1] lay in the range of 10 to 50 nM. Further, the Ki in assay [2] is under 10 nM.

For `CC(=O)Nc1ccc(CC(c2c[nH]cn2)c2cccc(C)c2C)cn1` (stereo not shown) [compound 248], in assay [1], the concentration for a half-maximal effect (EC50) was 10 to 50 nM. For the same compound, the Ki in assay [2] is 50 to 250 nM.

For `Cc1cccc(C(Cc2ccc(C(C)(C)C(=O)O)cc2)c2c[nH]cn2)c1C` (stereo not shown) [compound 251], the EC50 in assay [1] was 10 to 50 nM. In assay [2], the Ki fell in the range of 50 to 250 nM.
